{"source": "patent US10550105B2", "about": "(Ribon Therapeutics Inc., priority 2018, dated 2020)", "data": [{"target": "PARP7 (Homo sapiens (Human), UniProt Q7Z3E1)", "sequence (Q7Z3E1 whole entry)": "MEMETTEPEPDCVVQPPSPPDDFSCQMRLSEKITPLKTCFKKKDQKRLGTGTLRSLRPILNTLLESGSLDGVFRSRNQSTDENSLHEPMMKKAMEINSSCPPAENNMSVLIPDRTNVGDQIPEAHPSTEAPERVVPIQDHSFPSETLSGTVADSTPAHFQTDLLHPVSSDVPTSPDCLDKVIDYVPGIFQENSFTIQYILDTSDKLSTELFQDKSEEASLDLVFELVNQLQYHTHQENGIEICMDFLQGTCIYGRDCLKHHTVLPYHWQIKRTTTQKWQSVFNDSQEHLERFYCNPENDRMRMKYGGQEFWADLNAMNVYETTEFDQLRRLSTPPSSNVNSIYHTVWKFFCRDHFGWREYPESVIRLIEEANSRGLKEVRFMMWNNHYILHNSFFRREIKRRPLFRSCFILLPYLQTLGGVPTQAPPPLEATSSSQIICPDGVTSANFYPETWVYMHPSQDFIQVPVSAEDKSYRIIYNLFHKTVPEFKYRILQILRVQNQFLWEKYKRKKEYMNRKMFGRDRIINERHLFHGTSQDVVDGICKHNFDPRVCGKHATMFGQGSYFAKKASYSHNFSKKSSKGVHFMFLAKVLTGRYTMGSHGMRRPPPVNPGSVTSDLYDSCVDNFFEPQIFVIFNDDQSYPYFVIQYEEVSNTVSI", "test": "Enzymatic assay for inhibition of PARP7: TR-FRET displacement of biotinylated Probe A from the TIPARP active site", "type": "binding", "conditions": "Table A-1", "outline": "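TR-FRET, ex 320 nm / em 615 and 665 nm. Signal ratio reflects complex formation.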", "units": {"IC50": "nM"}, "values": [{"smiles": "O=C(CCOCCOc1cn[nH]c(=O)c1C(F)(F)F)N1CCN(c2ccc(C(F)(F)F)cn2)CC1", "note": "[Example 536, 5-[2-(3-Oxo-3-[4-[5-(trifluoromethyl)pyridin-2-yl]piperazin-1-yl]propoxy)ethoxy]-4-(trifluoromethyl)-2,3-dihydroyridazin-3-one]", "IC50": "< 100"}, {"smiles": "CC1c2ccccc2CN1c1cn[nH]c(=O)c1C(F)(F)F", "note": "(stereo not shown) [Example 249, 5-(1-Methylisoindolin-2-yl)-4-(trifluoromethyl)pyridazin-3(2H)-one]", "IC50": "100 to 1000"}, {"smiles": "NCc1cc2c(cc1F)CN(c1cn[nH]c(=O)c1C(F)(F)F)C2", "note": "[Example 327, 5-(5-(Aminomethyl)-6-fluoroisoindolin-2-yl)-4-(trifluoromethyl)pyridazin-3(2H)-one]", "IC50": "100 to 1000"}, {"smiles": "COC[C@H](CO[C@H](C)CC(=O)N1CCN(c2ccc(C#N)cn2)CC1)Oc1cn[nH]c(=O)c1C(F)(F)F", "note": "(single isomer, unassigned) [Example 571 Isomer A]", "IC50": "< 100"}, {"smiles": "O=C(C[C@@H]1CC[C@H](CNc2cn[nH]c(=O)c2C(F)(F)F)O1)N1CCN(c2ccc(C(F)(F)F)cn2)CC1", "note": "(single isomer, unassigned) [Example 546 Isomer D]", "IC50": "< 100"}, {"smiles": "O=c1[nH]ncc(N2Cc3ccc(OCc4cccnc4)nc3C2)c1C(F)(F)F", "note": "[Example 313, 5-(2-(Pyridin-3-ylmethoxy)-5,7-dihydro-6H-pyrrolo[3,4-b]pyridin-6-yl)-4-(trifluoromethyl)pyridazin-3(2H)-one]", "IC50": "< 100"}, {"smiles": "CN(c1cccc2c1CN(c1cn[nH]c(=O)c1C(F)(F)F)C2)C1CCOCC1", "note": "[Example 282, 5-(4-(Methyl(tetrahydro-2H-pyran-4-yl)amino)isoindolin-2-yl)-4-(trifluoromethyl)pyridazin-3(2H)-one]", "IC50": "100 to 1000"}, {"smiles": "O=C1OCCC1Oc1cccc2c1CN(c1cn[nH]c(=O)c1C(F)(F)F)C2", "note": "(stereo not shown) [Example 202, 5-(4-((2-Oxotetrahydrofuran-3-yl)oxy)isoindolin-2-yl)-4-(trifluoromethyl)pyridazin-3(2H)-one]", "IC50": "< 100"}, {"smiles": "Nc1cccc2c1CN(c1cn[nH]c(=O)c1C(F)(F)F)C2", "note": "[Example 205, 5-(4-Aminoisoindolin-2-yl)-4-(trifluoromethyl)pyridazin-3(2H)-one]", "IC50": "< 100"}, {"smiles": "C[C@@H](COCCC(=O)N1CCN(c2ncccc2C#N)CC1)Nc1cn[nH]c(=O)c1C(F)(F)F", "note": "[Example 676, (S)-2-(4-(3-(2-((6-Oxo-5-(trifluoromethyl)-1,6-dihydropyridazin-4-yl)amino)propoxy)propanoyl)piperazin-1-yl)nicotinonitrile]", "IC50": "< 100"}, {"smiles": "N#Cc1cnc(N2CCN(C(=O)c3cc(OCC4c5ccccc5CN4c4cn[nH]c(=O)c4C(F)(F)F)ccn3)CC2)nc1", "note": "(stereo not shown) [Example 380, 2-(4-(4-((2-(6-Oxo-5-(trifluoromethyl)-1,6-dihydropyridazin-4-yl)isoindolin-1-yl)methoxy)picolinoyl)piperazin-1-yl)pyrimidine-5-carbonitrile]", "IC50": "< 100"}, {"smiles": "NC(=O)c1cccc2c1CN(c1cn[nH]c(=O)c1C(F)(F)F)C2", "note": "[Example 269, 2-(6-Oxo-5-(trifluoromethyl)-1,6-dihydropyridazin-4-yl)isoindoline-4-carboxamide]", "IC50": "< 100"}, {"smiles": "N#Cc1ccc(N2CCCC(NC(=O)CCOC[C@@H]3CCCN3c3cn[nH]c(=O)c3C(F)(F)F)C2)nc1", "note": "(stereo partly drawn) [Example 114, N-[1-(5-cyanopyridin-2-yl)piperidin-3-yl]-3-[[(2S)-1-[6-oxo-5-(trifluoromethyl)-1,6-dihydropyridazin-4-yl]pyrrolidin-2-yl]methoxy]propanamide]", "IC50": "≥ 1000"}, {"smiles": "N#Cc1ccc(N2CCN(C(=O)CNCC[C@H]3c4ccccc4CN3c3cn[nH]c(=O)c3C(F)(F)F)CC2)nc1", "note": "[Example 144B, 6-[4-[2-([2-[(1S)-2-[6-oxo-5-(trifluoromethyl)-1,6-dihydropyridazin-4-yl]-2,3-dihydro-1H-isoindol-1-yl]ethyl]amino)acetyl]piperazin-1-yl]pyridine-3-carbonitrile]", "IC50": "100 to 1000"}, {"smiles": "N#Cc1ccc(N2CCN(C(=O)CCOC[C@@H]3CCCN3c3cn[nH]c(=O)c3C(F)(F)F)CC2)cc1", "note": "[Example 462, (S)-4-(4-(3-((1-(6-Oxo-5-(trifluoromethyl)-1,6-dihydropyridazin-4-yl)pyrrolidin-2-yl)methoxy)propanoyl)piperazin-1-yl)benzonitrile]", "IC50": "< 100"}, {"smiles": "C[C@@H](COCCCC(=O)N1CCN(c2ncc(C(F)(F)F)cn2)CC1)Nc1cn[nH]c(=O)c1C(F)(F)F", "note": "[Example 634, (S)-5-((1-(4-Oxo-4-(4-(5-(trifluoromethyl)pyrimidin-2-yl)piperazin-1-yl)butoxy)propan-2-yl)amino)-4-(trifluoromethyl)pyridazin-3(2H)-one]", "IC50": "< 100"}, {"smiles": "O=c1[nH]ncc(N2Cc3cccnc3C2)c1C(F)(F)F", "note": "[Example 236, 5-(5,7-Dihydro-6H-pyrrolo[3,4-b]pyridin-6-yl)-4-(trifluoromethyl)pyridazin-3(2H)-one]", "IC50": "< 100"}, {"smiles": "O=C(CCOC[C@H]1c2ccccc2CN1c1cn[nH]c(=O)c1C(F)(F)F)N1CCNCC1", "note": "[Example 418, (R)-5-(1-((3-Oxo-3-(piperazin-1-yl)propoxy)methyl)isoindolin-2-yl)-4-(trifluoromethyl)pyridazin-3(2H)-one 0.4 formic acid]", "IC50": "≥ 1000"}, {"smiles": "CC(=O)N1CCN(C(=O)c2cccc(OC[C@H]3c4ccccc4CN3c3cn[nH]c(=O)c3C(F)(F)F)c2)CC1", "note": "[Example 406, (R)-5-(1-((3-(4-Acetylpiperazine-1-carbonyl)phenoxy)methyl)isoindolin-2-yl)-4-(trifluoromethyl)pyridazin-3(2H)-one]", "IC50": "≥ 1000"}, {"smiles": "CC(=O)NCCOc1cccc2c1CN(c1cn[nH]c(=O)c1Cl)C2", "note": "[Example 241, N-(2-((2-(5-Chloro-6-oxo-1,6-dihydropyridazin-4-yl)isoindolin-4-yl)oxy)ethyl)acetamide]", "IC50": "100 to 1000"}, {"smiles": "O=C(C[C@H]1CC[C@@H](CNc2cn[nH]c(=O)c2C(F)(F)F)O1)N1CCN(c2ncc(Cl)cn2)CC1", "note": "(single isomer, unassigned) [Example 567 Isomer A]", "IC50": "< 100"}, {"smiles": "Cc1c(N2Cc3cccc(OC4CCNCC4)c3C2)cn[nH]c1=O", "note": "[Example 175, 4-Methyl-5-(4-(piperidin-4-yloxy)isoindolin-2-yl)pyridazin-3(2H)-one]", "IC50": "≥ 1000"}, {"smiles": "O=c1[nH]ncc(N2Cc3cc(F)c(N4CCOCC4)cc3C2)c1C(F)(F)F", "note": "[Example 26, 5-[5-fluoro-6-(morpholin-4-yl)-2,3-dihydro-1H-isoindol-2-yl]-4-(trifluoromethyl)-2,3-dihydropyridazin-3-one]", "IC50": "< 100"}, {"smiles": "C[C@@H](COCCC(=O)N1CCN(c2ncc(C(F)(F)F)s2)CC1)Nc1cn[nH]c(=O)c1C(F)(F)F", "note": "[Example 622, (S)-5-((1-(3-Oxo-3-(4-(5-(trifluoromethyl)thiazol-2-yl)piperazin-1-yl)propoxy)propan-2-yl)amino)-4-(trifluoromethyl)pyridazin-3(2H)-one]", "IC50": "< 100"}, {"smiles": "CC(Nc1cccc2c1CN(c1cn[nH]c(=O)c1C(F)(F)F)C2)c1ccncc1", "note": "(stereo not shown) [Example 271, 5-(4-((1-(Pyridin-4-yl)ethyl)amino)isoindolin-2-yl)-4-(trifluoromethyl)pyridazin-3(2H)-one]", "IC50": "< 100"}, {"smiles": "CN(CCOc1cn[nH]c(=O)c1C(F)(F)F)CCC(=O)N1CCN(c2ccc(C#N)cn2)CC1", "note": "[Example 516]", "IC50": "< 100"}, {"smiles": "C[C@H]1CN(c2ccc(C#N)cn2)CCN1C(=O)CCOC[C@@H]1CCCN1c1cn[nH]c(=O)c1C(F)(F)F", "note": "[Example 100B, 6-[(3S)-3-methyl-4-(3-[[(2S)-1-[6-oxo-5-(trifluoromethyl)-1,6-dihydropyridazin-4-yl]pyrrolidin-2-yl]methoxy]propanoyl)piperazin-1-yl]pyridine-3-carbonitrile]", "IC50": "< 100"}, {"smiles": "N#Cc1ccc(N2CCN(C(=O)CCCOCC3c4ccccc4CN3c3cn[nH]c(=O)c3C(F)(F)F)CC2)nc1", "note": "(stereo not shown) [Example 408, 6-(4-(4-((2-(6-Oxo-5-(trifluoromethyl)-1,6-dihydropyridazin-4-yl)isoindolin-1-yl)methoxy)butanoyl)piperazin-1-yl)nicotinonitrile]", "IC50": "< 100"}, {"smiles": "N#Cc1ccc(N2CCN(C(=O)c3cc(OC[C@@H]4CCCN4c4cn[nH]c(=O)c4C(F)(F)F)ccn3)CC2)nc1", "note": "[Example 73, 6-[4-[(4-[[(2S)-1-[6-oxo-5-(trifluoromethyl)-1,6-dihydropyridazin-4-yl]pyrrolidin-2-yl]methoxy]pyridin-2-yl)carbonyl]piperazin-1-yl]pyridine-3-carbonitrile]", "IC50": "< 100"}, {"smiles": "CO[C@H](C)[C@@H](COCCC(=O)N1CCN(c2ccc(C#N)cn2)CC1)Nc1cn[nH]c(=O)c1C(F)(F)F", "note": "[Example 596, 6-(4-[3-[(2R,3R)-3-Methoxy-2-[[6-oxo-5-(trifluoromethyl)-1,6-dihydropyridazin-4-yl]amino]butoxy]propanoyl]piperazin-1-yl)pyridine-3-carbonitrile]", "IC50": "< 100"}, {"smiles": "O=C(CCOC[C@@H]1CCCN1c1cn[nH]c(=O)c1C(F)(F)F)N1CCN(c2ncc(C(F)(F)F)cn2)CC1", "note": "[Example 457, (S)-5-(2-((3-Oxo-3-(4-(5-(trifluoromethyl)pyrimidin-2-yl)piperazin-1-yl)propoxy)methyl)pyrrolidin-1-yl)-4-(trifluoromethyl)pyridazin-3(2H)-one]", "IC50": "< 100"}, {"smiles": "O=C(c1cncc(OC[C@H]2c3ccccc3CN2c2cn[nH]c(=O)c2C(F)(F)F)c1)N1CCN(c2ccc(Cl)cn2)CC1", "note": "[Example 389, (R)-5-(1-(((5-(4-(5-Chloropyridin-2-yl)piperazine-1-carbonyl)pyridin-3-yl)oxy)methyl)isoindolin-2-yl)-4-(trifluoromethyl)pyridazin-3(2H)-one]", "IC50": "100 to 1000"}, {"smiles": "CC(=O)N(C)CC1c2ccccc2CN1c1cn[nH]c(=O)c1C(F)(F)F", "note": "(stereo not shown) [Example 276, N-Methyl-N-((2-(6-oxo-5-(trifluoromethyl)-1,6-dihydropyridazin-4-yl)isoindolin-1-yl)methyl)acetamide]", "IC50": "≥ 1000"}, {"smiles": "CC[C@@H](COCCC(=O)N1CCN(c2ccc(C(F)(F)F)cn2)CC1)Nc1cn[nH]c(=O)c1C(F)(F)F", "note": "[Example 587, 5-[[(2S)-1-(3-Oxo-3-[4-[5-(trifluoromethyl)pyridin-2-yl]piperazin-1-yl]propoxy)butan-2-yl]amino]-4-(trifluoromethyl)-2,3-dihydropyridazin-3-one]", "IC50": "< 100"}]}]}
